Our source for the EC50 and IC50 values is US10316017B2, “COT modulators and methods of use thereof” (Gilead Sciences, Inc., priority 2015, dated 2019).

Structures are written as SMILES. Like-named read-outs stand apart in the source and are kept apart here.

Experiment [1] has as its system TNFα production in LPS-stimulated human monocytes. Nature of the experiment: Cot Monocyte TNFα Cell Based Assay. To be noted: Homo sapiens, Monocyte, read-out: EC50 TNF. The method in brief:
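TNFα release quantified by two-antibody TR-FRET, normalised to unstimulated (0%) and LPS-stimulated (100%) wells. Cells got a 1 h compound exposure at 37° C in 0.5% DMSO before 4 h challenge with 50 pg/ml LPS, at 5,000 cells/well.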

Experiment [2] deals with T1, human Cot catalytic domain (30-397 amino acids) (Homo sapiens, UniProt P41279).
T1 construct: Purified recombinant human Cot catalytic domain (30-397 amino acids) was purchased from Cama Biosciences; purchased Cama Biosciences (so in the source)
T1 sequence (P41279 30-397): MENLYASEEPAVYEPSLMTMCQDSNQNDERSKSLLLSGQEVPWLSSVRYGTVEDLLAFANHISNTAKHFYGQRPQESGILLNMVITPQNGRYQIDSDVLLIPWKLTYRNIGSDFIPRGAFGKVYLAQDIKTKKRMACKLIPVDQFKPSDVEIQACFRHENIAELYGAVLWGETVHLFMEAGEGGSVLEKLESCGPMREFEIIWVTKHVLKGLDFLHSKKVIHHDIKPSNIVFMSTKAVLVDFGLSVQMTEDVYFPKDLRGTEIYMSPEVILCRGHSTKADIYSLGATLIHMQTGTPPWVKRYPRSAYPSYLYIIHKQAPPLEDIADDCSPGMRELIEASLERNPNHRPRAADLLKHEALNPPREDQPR
Nature of the experiment: High Throughput Cot Biochemical Assay (KinEASE TR-FRET). Conditions: read-out: IC50 HTRF. The method in brief: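 TR-FRET (KinEASE) read-out: Eu-labelled phospho-specific antibody binds XL665-tagged STK3 peptide (1 μM) phosphorylated by 5 nM human Cot kinase domain (residues 30-397). Reaction at 400 μM ATP, pH 7.0 MOPS buffer with 10 mM MgOAc, 1 mM DTT and 0.1% DMSO.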
On the technique in general: In TR-FRET formats the signal depends on donor and acceptor labels being close together.

[3] abbreviates: LPS-stimulated human monocytes, TNFα TR-FRET.
The mark [4] stands for this setting: Cot KinEASE TR-FRET, 400 μM ATP.
The mark [5] stands for this setting: TNFα in LPS-stimulated human monocytes.
Where [6] appears, read: Cot biochemical HTRF (KinEASE TR-FRET) assay.
Where [7] appears, read: Cot KinEASE TR-FRET (HTRF) biochemical assay, 400 μM ATP.

As to `CC(C)(C)CNc1c(C#N)cnc2c(Br)cc(N[C@H](c3cn(Cc4c(F)cccc4F)nn3)c3ccccc3Cl)cc12` [Example 1052, (S)-8-bromo-6-(((2-chlorophenyl)(1-(2,6-difluorobenzyl)-1H-1,2,3-triazol-4-yl)methyl)amino)-4-(neopentylamino)quinoline-3-carbonitrile], in experiment [1] (setting [3]), the EC50 was not below 1000 nM. Moreover, the IC50 in experiment [2] (setting [4]) is 189 nM.
With `CC(C)(C)N1CCC(n2cc([C@@H](Nc3cc(Cl)c4ncc(C#N)c(N[C@H]5CCc6ccccc65)c4c3)c3ccccc3)nn2)CC1` [Example 581, 6-(((S)-(1-(1-(tert-butyl)piperidin-4-yl)-1H-1,2,3-triazol-4-yl)(phenyl)methyl)amino)-8-chloro-4-(((S)-2,3-dihydro-1H-inden-1-yl)amino)quinoline-3-carbonitrile], the 50% effective concentration (EC50) in experiment [1] (setting [5]) was 4220 nM. Besides, in experiment [2] (setting [6]), the IC50 stood at 333 nM.
The matching figures for `Cn1cc(CNc2c(C#N)cnc3c(Cl)cc(N[C@@H](c4ccccc4)c4cn(C5CCN(C(C)(C)C)CC5)nn4)cc23)cn1` [Example 475, (S)-6-(((1-(1-(tert-butyl)piperidin-4-yl)-1H-1,2,3-triazol-4-yl)(phenyl)methyl)amino)-8-chloro-4-(((1-methyl-1H-pyrazol-4-yl)methyl)amino)quinoline-3-carbonitrile]: more than 10000 nM and 459 nM.
Regarding `Cc1c([C@H](Nc2cc(C#N)c3ncc(C#N)c(NCC(C)(C)C)c3c2)c2cn(C3(C(F)(F)F)CC3)nn2)cccc1-n1cncn1` [Example 1043, (S)-6-(((2-methyl-3-(1H-1,2,4-triazol-1-yl)phenyl)(1-(1-(trifluoromethyl)cyclopropyl)-1H-1,2,3-triazol-4-yl)methyl)amino)-4-(neopentylamino)quinoline-3,8-dicarbonitrile], the EC50 in experiment [1] (setting [3]) was 110 nM. Further, in experiment [2] (setting [4]), the IC50 was found to be 3 nM.
Take `CCN1CC(n2cc([C@@H](Nc3cc(Cl)c4ncc(C#N)c(Nc5ccc(F)c(Cl)c5)c4c3)c3ccccc3)nn2)CC(F)(F)C1` (stereo partly drawn) [Example 745, 8-chloro-4-((3-chloro-4-fluorophenyl)amino)-6-(((1S)-(1-(1-ethyl-5,5-difluoropiperidin-3-yl)-1H-1,2,3-triazol-4-yl)(phenyl)methyl)amino) quinoline-3-carbonitrile]: the EC50 in experiment [1] (setting [5]) was 615 nM. Moreover, the IC50 in experiment [2] (setting [6]) was determined as 70 nM.
Turning to `CC(C)(C)N1CCC(n2cc([C@@H](Nc3cc(Cl)c4ncc(C#N)c(Nc5ccc(F)c(Cl)c5)c4c3)c3cccc(N4CCCC4=O)c3)nn2)CC1` [Example 550, (S)-6-(((1-(1-(tert-butyl)piperidin-4-yl)-1H-1,2,3-triazol-4-yl)(3-(2-oxopyrrolidin-1-yl)phenyl)methyl)amino)-8-chloro-4-((3-chloro-4-fluorophenyl)amino)quinoline-3-carbonitrile], the EC50 in experiment [1] (setting [5]) was found to be 115 nM. Further, the IC50 in experiment [2] (setting [6]) was determined as 1 nM.
In the case of `[2H][C@](Nc1cc(Cl)c2ncc(C#N)c(NC3CCOC(C)(C)C3)c2c1)(c1ccc(F)cc1)c1cn(C2CC2)nn1` (stereo partly drawn) [Example 64, 8-chloro-6-(((S)-(1-cyclopropyl-1H-1,2,3-triazol-4-yl)(4-fluorophenyl)methyl-d)amino)-4-((2,2-dimethyltetrahydro-2H-pyran-4-yl)amino) quinoline-3-carbonitrile], the EC50 in experiment [1] (setting [5]) is more than 1000 nM. Besides, the IC50 in experiment [2] (setting [7]) worked out at 106 nM.
`[2H][C@](Nc1cc(Cl)c2ncc(C#N)c(NCC(C)(C)C)c2c1)(c1ccc(Cl)cc1)c1cn(C2CCN(C(C)(C)C)CC2)nn1` [Example 929, (S)-6-(((1-(1-(tert-butyl)piperidin-4-yl)-1H-1,2,3-triazol-4-yl)(4-chlorophenyl)methyl-d)amino)-8-chloro-4-(neopentylamino)quinoline-3-carbonitrile]: the EC50 in experiment [1] (setting [3]) was 98 nM. Besides, the IC50 in experiment [2] (setting [4]) amounted to 7 nM.
`N#Cc1cnc2c(Cl)cc(N[C@@H](c3ccccc3)c3cn(CCCF)nn3)cc2c1Nc1ccc(F)c(Cl)c1` [Example 666, (S)-8-chloro-4-((3-chloro-4-fluorophenyl)amino)-6-(((1-(3-fluoropropyl)-1H-1,2,3-triazol-4-yl)(phenyl)methyl)amino) quinoline-3-carbonitrile]: in experiment [1] (setting [5]), the EC50 was found to be 458 nM. The IC50 in experiment [2] (setting [6]) amounted to 14 nM.
`CC(C)(C)CNc1c(C#N)cnc2c(C#N)cc(N[C@H](c3cn(C4(C#N)CC4)nn3)c3ccccc3C(F)F)cc12` [Example 1025, (S)-6-(((1-(1-cyanocyclopropyl)-1H-1,2,3-triazol-4-yl)(2-(difluoromethyl)phenyl)methyl)amino)-4-(neopentylamino)quinoline-3,8-dicarbonitrile]: in experiment [1] (setting [3]), the EC50 was found to be 131 nM. The IC50 in experiment [2] (setting [4]) was found to be 10 nM.
As for `CC(C)(C)N1CCC(n2cc([C@@H](Nc3cc(Cl)c4ncc(C#N)c(Nc5ccc(F)c(Cl)c5)c4c3)c3ccc(Cl)cc3)nn2)CC1` [Example 803, (S)-6-(((1-(1-(tert-butyl)piperidin-4-yl)-1H-1,2,3-triazol-4-yl)(4-chlorophenyl)methyl)amino)-8-chloro-4-((3-chloro-4-fluorophenyl)amino)quinoline-3-carbonitrile], the EC50 in experiment [1] (setting [5]) came to 206 nM. Also, the IC50 in experiment [2] (setting [6]) was 7 nM.
Consider `[2H][C@](Nc1cc(Cl)c2ncc(C#N)c(N[C@H](CCN3CCCC3)c3ccccc3)c2c1)(c1ccc(F)cc1)c1cn(C2CC2)nn1` [Example 167, 8-chloro-6-(((1-cyclopropyl-1H-1,2,3-triazol-4-yl) (4-fluorophenyl)methyl-d)amino)-4-(((R)-1-phenyl-3-(pyrrolidin-1-yl)propyl)amino) quinoline-3-carbonitrile], for which the EC50 in experiment [1] (setting [5]) was more than 10000 nM. Moreover, the IC50 in experiment [2] (setting [7]) amounted to 171 nM.
Regarding `CC[C@@H](Nc1c(C#N)cnc2c(Cl)cc(N[C@@H](c3ccc(F)cc3)c3c[nH]nn3)c(F)c12)c1ccccc1` [Example 297], the EC50 in experiment [1] (setting [5]) is 4250 nM. Also, the IC50 in experiment [2] (setting [7]) was more than 10000 nM.
Turning to `Cc1c(-c2cn[nH]c2)cccc1[C@H](Nc1cc(Cl)c2ncc(C#N)c(NCC(C)(C)C)c2c1)c1cn(C2(C(F)F)CC2)nn1` [Example 1166, (S)-8-chloro-6-(((1-(1-(difluoromethyl)cyclopropyl)-1H-1,2,3-triazol-4-yl) (2-methyl-3-(1H-pyrazol-4-yl)phenyl)methyl)amino)-4-(neopentylamino)quinoline-3-carbonitrile], the half-maximal effective concentration (EC50) in experiment [1] (setting [3]) worked out at 47 nM. In addition, the concentration for half-maximal inhibition (IC50) in experiment [2] (setting [4]) came to 5 nM.
In the case of `N#Cc1cnc2c(Cl)cc(N[C@H](c3cn(C4COC4)nn3)c3ccc(F)cc3F)cc2c1Nc1cnc(F)c(F)c1` [Example 467, (S)-8-chloro-6-(((2,4-difluorophenyl)(1-(oxetan-3-yl)-1H-1,2,3-triazol-4-yl)methyl)amino)-4-((5,6-difluoropyridin-3-yl)amino)quinoline-3-carbonitrile], in experiment [1] (setting [5]), the EC50 was 978 nM. Moreover, the IC50 in experiment [2] (setting [6]) came to 13 nM.
Regarding `N#Cc1cnc2c(Cl)cc(N[C@H](c3c[nH]nn3)c3ccccc3C(F)F)cc2c1Nc1cnc(F)c(F)c1` [Example 404, (S)-8-chloro-6-(((2-(difluoromethyl)phenyl) (1H-1,2,3-triazol-4-yl)methyl)amino)-4-((5,6-difluoropyridin-3-yl)amino)quinoline-3-carbonitrile], in experiment [1] (setting [5]), the EC50 came to 570 nM. Further, the half-inhibitory concentration (IC50) in experiment [2] (setting [6]) came to 34 nM.
Take `[2H][C@](Nc1cc(Cl)c2ncc(C#N)c(NC[C@@H](C)c3ccccc3)c2c1)(c1ccc(F)cc1)c1cn(C2CC2)nn1` [Example 226, 8-chloro-6-(((S)-(1-cyclopropyl-1H-1,2,3-triazol-4-yl)(4-fluorophenyl)methyl-d)amino)-4-(((S)-2-phenylpropyl)amino) quinoline-3-carbonitrile]: the EC50 in experiment [1] (setting [5]) turned out to be 606 nM. The IC50 in experiment [2] (setting [7]) came to 16 nM.
`CC(C)(C)CNc1c(C#N)cnc2c(Cl)cc(N[C@H](c3cn(C4CC4)nn3)c3ccccc3CO)cc12` [Example 114, (S)-8-chloro-6-(((1-cyclopropyl-1H-1,2,3-triazol-4-yl)(2-(hydroxymethyl)phenyl)methyl)amino)-4-(neopentylamino) quinoline-3-carbonitrile]: in experiment [1] (setting [5]), the EC50 turned out to be 190 nM. The IC50 in experiment [2] (setting [7]) was 6 nM.
For `[2H][C@](Nc1cc(Cl)c2ncc(C#N)c(N[C@@H]3CCC[C@@H](O)C3)c2c1)(c1ccc(F)cc1)c1cn(C2CC2)nn1` [Example 316, 8-chloro-6-(((S)-(1-cyclopropyl-1H-1,2,3-triazol-4-yl)(4-fluorophenyl)methyl-d)amino)-4-(((1R,3R)-3-hydroxycyclohexyl)amino) quinoline-3-carbonitrile], the EC50 in experiment [1] (setting [5]) worked out at 3640 nM. In experiment [2] (setting [7]), the IC50 was determined as 1820 nM.
For the compound `N#Cc1cnc2c(Cl)cc(N[C@@H](c3ccc(F)cc3)c3c[nH]nn3)cc2c1Nc1ccc(F)nc1` [Example 374, (S)-8-chloro-6-(((4-fluorophenyl)(1H-1,2,3-triazol-4-yl)methyl)amino)-4-((6-fluoropyridin-3-yl)amino)quinoline-3-carbonitrile], the EC50 in experiment [1] (setting [5]) turned out to be 3840 nM. In experiment [2] (setting [7]), the IC50 is 161 nM.
Consider `[2H]C(Nc1cc(Cl)c2ncc(C#N)c(NCC(C)(C)C)c2c1)(c1ccc(F)cc1)c1nnnn1C` (centres unmarked) [Example 184, 8-chloro-6-(((4-fluorophenyl)(1-methyl-1H-tetrazol-5-yl)methyl-d)amino)-4-(neopentylamino) quinoline-3-carbonitrile], for which the EC50 in experiment [1] (setting [5]) worked out at 4380 nM. The IC50 in experiment [2] (setting [7]) was 154 nM.
For the compound `[2H][C@](Nc1cc(Cl)c2ncc(C#N)c(N[C@H](CC)c3ccccc3)c2c1)(c1ccc(F)cc1)c1cn(C2CC2)nn1` [Compound 2], the EC50 in experiment [1] (setting [5]) worked out at 151 nM. The concentration for half-maximal inhibition (IC50) in experiment [2] (setting [7]) came to 6 nM.

A word on the EC50: it is the concentration needed to bring the measured effect to its halfway point. Usually IC50 stands for the midpoint of a concentration-inhibition curve.
